In patent US9096593B2, “Compounds and methods for kinase modulation, and indications therefor” (Plexxikon Inc., priority 2009, dated 2015):
Where two headings read alike, the source gives them in different places.

Experiments:
c-Kit kinase = c-Kit kinase (Homo sapiens (Human), UniProt P10721); assay: c-Kit kinase biochemical activity assay (AlphaScreen, biotin-(E4Y)10 phosphorylation)
BCR-FMS/BaF3 cells = BCR-FMS/BaF3 cells (Homo sapiens, UniProt P07333); assay: BCR-FMS/BaF3 cell proliferation assay (ATPlite); assay type: cell-based
Summary of the method: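 Proliferation read by ATPlite luminescence after 3 days' exposure (37 °C, 5% CO2) to compound in 1:3 dilutions, eight points, maximum 10 μM final, DMSO control.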

CYP1A2 = CYP1A2 (Homo sapiens (Human), UniProt P05177); assay: CYP enzyme inhibition, fluorescent substrate
CYP2C19 = CYP2C19 (Homo sapiens (Human), UniProt P33261); assay: CYP enzyme inhibition, fluorescent substrate
Summary of the method: (§1)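 […]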

CYP2C9 = CYP2C9 (Homo sapiens (Human), UniProt P11712); assay: CYP enzyme inhibition, fluorescent substrate
Summary of the method: as §1

CYP2D6 = CYP2D6 (Homo sapiens (Human), UniProt P10635); assay: CYP enzyme inhibition, fluorescent substrate
CYP3A4(BFC) = CYP3A4(BFC) (Homo sapiens (Human), UniProt P08684); assay: CYP enzyme inhibition, fluorescent substrate
Summary of the method: as §1

[1] = Kit IC50/Fms IC50, BCR-KIT/BaF3 vs BCR-FMS/BaF3 cells
[2] = read-out: BCR/BaF3 (IC50 μM) Fms; BCR-FMS/BaF3 cells
[3] = read-out: Cell based (IC50 μM) BCR/BaF3 (Fms); BCR-FMS/BaF3 cells, 3 days
[4] = read-out: Cyp IC50 (μM) 3A4(BFC), BFC substrate

Chain of CYP2C9 (P11712 whole entry): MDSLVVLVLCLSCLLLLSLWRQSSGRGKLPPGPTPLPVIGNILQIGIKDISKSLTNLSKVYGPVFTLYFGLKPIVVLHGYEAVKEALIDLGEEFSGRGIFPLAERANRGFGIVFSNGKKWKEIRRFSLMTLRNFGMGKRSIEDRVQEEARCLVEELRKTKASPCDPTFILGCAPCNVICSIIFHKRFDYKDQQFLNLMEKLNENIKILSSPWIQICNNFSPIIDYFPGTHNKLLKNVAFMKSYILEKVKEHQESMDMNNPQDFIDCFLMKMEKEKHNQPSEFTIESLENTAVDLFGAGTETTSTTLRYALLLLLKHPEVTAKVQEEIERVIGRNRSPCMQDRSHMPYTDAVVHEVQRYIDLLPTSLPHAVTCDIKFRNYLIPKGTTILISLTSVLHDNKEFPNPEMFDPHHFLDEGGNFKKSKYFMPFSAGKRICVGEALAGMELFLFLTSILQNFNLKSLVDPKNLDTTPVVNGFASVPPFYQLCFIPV
Chain of CYP2D6 (P10635 whole entry): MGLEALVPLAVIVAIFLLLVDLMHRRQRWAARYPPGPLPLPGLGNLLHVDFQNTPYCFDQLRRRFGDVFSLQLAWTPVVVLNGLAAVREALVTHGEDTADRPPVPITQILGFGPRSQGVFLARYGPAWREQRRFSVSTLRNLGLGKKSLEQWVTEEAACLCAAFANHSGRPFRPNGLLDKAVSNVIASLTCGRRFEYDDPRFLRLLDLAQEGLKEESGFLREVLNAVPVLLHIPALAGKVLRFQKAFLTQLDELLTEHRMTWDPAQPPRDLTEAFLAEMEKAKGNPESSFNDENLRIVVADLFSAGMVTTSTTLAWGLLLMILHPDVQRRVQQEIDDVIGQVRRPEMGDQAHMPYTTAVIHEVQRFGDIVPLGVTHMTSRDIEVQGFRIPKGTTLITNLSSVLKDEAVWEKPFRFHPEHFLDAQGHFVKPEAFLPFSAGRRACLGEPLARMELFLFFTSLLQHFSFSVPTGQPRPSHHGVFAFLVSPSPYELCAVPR
Chain of CYP3A4(BFC) (P08684 whole entry): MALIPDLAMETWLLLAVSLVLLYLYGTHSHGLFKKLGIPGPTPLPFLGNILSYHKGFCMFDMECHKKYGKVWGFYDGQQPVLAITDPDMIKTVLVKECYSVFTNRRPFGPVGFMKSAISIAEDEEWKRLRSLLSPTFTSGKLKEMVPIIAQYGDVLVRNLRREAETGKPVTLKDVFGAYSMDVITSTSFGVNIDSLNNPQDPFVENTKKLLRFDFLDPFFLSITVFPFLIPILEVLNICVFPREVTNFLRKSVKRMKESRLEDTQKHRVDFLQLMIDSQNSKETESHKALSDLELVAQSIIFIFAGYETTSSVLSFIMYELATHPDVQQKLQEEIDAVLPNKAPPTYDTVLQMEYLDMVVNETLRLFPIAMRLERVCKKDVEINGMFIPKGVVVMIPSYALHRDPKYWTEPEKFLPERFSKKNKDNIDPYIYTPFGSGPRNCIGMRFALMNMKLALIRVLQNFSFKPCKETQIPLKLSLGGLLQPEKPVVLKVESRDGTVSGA
Chain of BCR-FMS/BaF3 cells (P07333 20-972 limits assumed, change not shown): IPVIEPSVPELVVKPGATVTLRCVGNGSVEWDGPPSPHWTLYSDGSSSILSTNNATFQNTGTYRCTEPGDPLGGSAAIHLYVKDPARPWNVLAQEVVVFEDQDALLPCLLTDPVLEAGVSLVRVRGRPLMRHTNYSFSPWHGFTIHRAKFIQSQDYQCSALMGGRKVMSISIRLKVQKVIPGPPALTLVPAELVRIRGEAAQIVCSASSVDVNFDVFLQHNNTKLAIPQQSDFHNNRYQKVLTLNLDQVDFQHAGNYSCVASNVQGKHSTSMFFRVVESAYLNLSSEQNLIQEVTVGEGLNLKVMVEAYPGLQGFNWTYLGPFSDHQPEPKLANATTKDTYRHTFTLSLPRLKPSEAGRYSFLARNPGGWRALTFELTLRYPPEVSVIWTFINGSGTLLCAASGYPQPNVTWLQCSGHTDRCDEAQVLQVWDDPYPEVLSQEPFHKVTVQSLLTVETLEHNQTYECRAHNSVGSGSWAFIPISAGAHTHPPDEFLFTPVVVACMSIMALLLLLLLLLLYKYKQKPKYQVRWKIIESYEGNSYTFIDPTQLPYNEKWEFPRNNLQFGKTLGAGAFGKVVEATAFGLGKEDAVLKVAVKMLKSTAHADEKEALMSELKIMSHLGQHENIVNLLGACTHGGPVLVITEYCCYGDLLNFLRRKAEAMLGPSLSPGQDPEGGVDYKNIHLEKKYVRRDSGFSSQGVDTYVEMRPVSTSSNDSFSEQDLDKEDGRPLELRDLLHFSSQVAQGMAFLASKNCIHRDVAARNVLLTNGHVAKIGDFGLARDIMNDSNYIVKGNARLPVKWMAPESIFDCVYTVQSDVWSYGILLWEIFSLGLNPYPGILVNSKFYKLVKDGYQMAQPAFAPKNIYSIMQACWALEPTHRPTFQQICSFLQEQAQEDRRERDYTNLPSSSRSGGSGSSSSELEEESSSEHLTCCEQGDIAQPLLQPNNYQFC
Chain of CYP1A2 (P05177 whole entry): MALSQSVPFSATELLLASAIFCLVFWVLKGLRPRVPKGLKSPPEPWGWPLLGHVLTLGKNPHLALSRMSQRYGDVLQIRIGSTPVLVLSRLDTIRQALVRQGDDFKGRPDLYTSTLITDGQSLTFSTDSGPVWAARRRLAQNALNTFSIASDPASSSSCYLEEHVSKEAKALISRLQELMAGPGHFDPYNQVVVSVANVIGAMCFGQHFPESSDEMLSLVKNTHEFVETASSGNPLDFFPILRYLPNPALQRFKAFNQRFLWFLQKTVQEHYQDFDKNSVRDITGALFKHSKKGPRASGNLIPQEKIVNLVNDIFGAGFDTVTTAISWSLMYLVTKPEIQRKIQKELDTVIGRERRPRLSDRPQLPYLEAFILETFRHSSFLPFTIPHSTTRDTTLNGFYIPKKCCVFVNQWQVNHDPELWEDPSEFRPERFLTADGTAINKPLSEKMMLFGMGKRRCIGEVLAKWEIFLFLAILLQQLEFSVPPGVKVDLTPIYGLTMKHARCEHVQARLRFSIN
Chain of CYP2C19 (P33261 whole entry): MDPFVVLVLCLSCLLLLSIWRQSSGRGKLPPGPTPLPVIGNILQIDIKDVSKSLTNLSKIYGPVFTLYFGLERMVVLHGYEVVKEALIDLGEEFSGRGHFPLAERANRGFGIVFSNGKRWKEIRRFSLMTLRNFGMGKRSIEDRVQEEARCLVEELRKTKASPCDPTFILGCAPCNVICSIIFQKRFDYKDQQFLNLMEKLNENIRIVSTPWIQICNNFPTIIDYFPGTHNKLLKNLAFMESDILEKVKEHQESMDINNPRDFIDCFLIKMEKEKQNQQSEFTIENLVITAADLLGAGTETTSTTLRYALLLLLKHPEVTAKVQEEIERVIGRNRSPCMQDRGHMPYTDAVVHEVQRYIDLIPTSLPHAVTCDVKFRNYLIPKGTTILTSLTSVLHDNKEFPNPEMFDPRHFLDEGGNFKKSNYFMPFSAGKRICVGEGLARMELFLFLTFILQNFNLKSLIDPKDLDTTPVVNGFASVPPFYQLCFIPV
Chain of c-Kit kinase (P10721 26-976): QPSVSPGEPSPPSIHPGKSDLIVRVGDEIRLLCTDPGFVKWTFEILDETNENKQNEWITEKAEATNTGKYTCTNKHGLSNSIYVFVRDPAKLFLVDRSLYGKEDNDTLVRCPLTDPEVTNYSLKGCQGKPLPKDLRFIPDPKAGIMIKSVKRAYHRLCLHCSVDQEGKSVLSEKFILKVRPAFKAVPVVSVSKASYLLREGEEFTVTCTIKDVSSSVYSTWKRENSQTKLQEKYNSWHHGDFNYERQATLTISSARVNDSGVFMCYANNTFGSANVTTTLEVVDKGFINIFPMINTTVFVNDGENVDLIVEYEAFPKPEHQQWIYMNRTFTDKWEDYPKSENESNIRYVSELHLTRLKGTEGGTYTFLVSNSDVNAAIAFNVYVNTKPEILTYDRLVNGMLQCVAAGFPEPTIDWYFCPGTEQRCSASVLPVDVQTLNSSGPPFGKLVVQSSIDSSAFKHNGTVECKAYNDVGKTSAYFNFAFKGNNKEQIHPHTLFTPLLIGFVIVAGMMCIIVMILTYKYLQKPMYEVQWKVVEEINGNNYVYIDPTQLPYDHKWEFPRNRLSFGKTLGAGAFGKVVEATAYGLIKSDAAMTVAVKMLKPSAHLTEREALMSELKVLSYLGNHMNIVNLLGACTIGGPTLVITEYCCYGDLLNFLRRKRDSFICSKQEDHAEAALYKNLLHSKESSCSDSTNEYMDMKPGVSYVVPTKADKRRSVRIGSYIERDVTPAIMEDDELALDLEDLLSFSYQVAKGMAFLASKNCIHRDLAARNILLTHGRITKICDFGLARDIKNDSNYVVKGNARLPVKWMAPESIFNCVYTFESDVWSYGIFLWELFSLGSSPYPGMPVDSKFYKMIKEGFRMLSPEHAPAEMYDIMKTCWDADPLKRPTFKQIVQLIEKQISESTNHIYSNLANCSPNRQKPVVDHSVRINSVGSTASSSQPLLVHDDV

Compound | IC50 (c-Kit kinase) | BCR/BaF3 selectivity (Kit IC50/Fms IC50) (BCR-FMS/BaF3 cells; [1]) | IC50 (BCR-FMS/BaF3 cells; [2]) | IC50 (BCR-FMS/BaF3 cells; [3]) | IC50 (CYP1A2; human, 15 min) | IC50 (CYP2C19; read-out: Cyp IC50 (μM) 2C19) | IC50 (CYP2C9; read-out: Cyp IC50 (μM) 2C9) | IC50 (CYP2D6; read-out: Cyp IC50 (μM) 2D6) | IC50 (CYP3A4(BFC)) | IC50 (CYP1A2; read-out: Cyp IC50 (μM) 1A2) | IC50 (CYP2C19) | IC50 (CYP2D6) | IC50 (CYP3A4(BFC); [4]) | IC50 (CYP2C9) | IC50 (BCR-FMS/BaF3 cells; BCR-FMS/BaF3 cells, 3 days; read-out: Cell based (IC50 μM) BCR/BaF3 (Fms)) | IC50 (BCR-FMS/BaF3 cells; BCR-FMS/BaF3 cells; read-out: BCR/BaF3 (IC50 μM) Fms) | IC50 (CYP1A2)
COc1ccnc2[nH]cc(Cc3ccc(NCc4ccc(Cl)cc4)nc3F)c12 [Compound P-2037, (4-Chloro-benzyl)-[6-fluoro-5-(4-methoxy-1H-pyrrolo[2,3-b]pyridin-3-ylmethyl)-pyridin-2-yl]-amine] | > 0.1 µM | <20 | < 0.1 µM | < 0.1 µM | > 10 µM | < 5 µM | < 5 µM | > 10 µM | 5 to 10 µM |  |  |  |  |  |  |  | 
Fc1ccc(CNc2ccc(Cc3c[nH]c4ncc(Cl)cc34)cn2)cn1 [Compound P-2004, [5-(5-chloro-1H-pyrrolo[2,3-b]pyridin-3-ylmethyl)-pyridin-2-yl]-(6-fluoro-pyridin-3-ylmethyl)-amine] | < 0.1 µM | <20 | < 0.1 µM | < 0.1 µM |  |  | < 5 µM |  |  | > 10 µM | 5 to 10 µM | 5 to 10 µM | < 5 µM |  |  |  | 
Cc1cnc2[nH]cc(Cc3cnc(NCc4cccc(C)n4)nc3)c2c1 [Compound P-2079, (6-Methyl-pyridin-2-ylmethyl)-[5-(5-methyl-1H-pyrrolo[2,3-b]pyridin-3-ylmethyl)-pyrimidin-2-yl]-amine] | < 0.1 µM | <20 | < 0.1 µM |  | > 10 µM |  |  | > 10 µM |  |  | 5 to 10 µM |  | < 5 µM | 5 to 10 µM |  |  | 
Clc1cnc2[nH]cc(Cc3ccc(NCc4ccc(Cl)nc4)nc3)c2c1 [Compound P-2003] | < 0.1 µM | <20 |  |  |  | 5 to 10 µM | < 5 µM | > 10 µM |  |  |  |  | 5 to 10 µM |  | < 0.1 µM | < 0.1 µM | > 10 µM
COc1ncccc1CNc1ncc(Cc2c[nH]c3ncc(C)cc23)cn1 [Compound P-2139, (2-Methoxy-pyridin-3-ylmethyl)-[5-(5-methyl-1H-pyrrolo[2,3-b]pyridin-3-ylmethyl)-pyrimidin-2-yl]-amine] | > 0.1 µM | <20 | > 0.1 µM |  | > 10 µM | > 10 µM |  | > 10 µM | 5 to 10 µM |  |  |  |  | 5 to 10 µM |  |  | 
COc1ncc(F)cc1CNc1ncc(Cc2c[nH]c3ncc(C)cc23)cn1 [Compound P-2061, (5-Fluoro-2-methoxy-pyridin-3-ylmethyl)-[5-(5-methyl-1H-pyrrolo[2,3-b]pyridin-3-ylmethyl)-pyrimidin-2-yl]-amine] | > 0.1 µM | >20 | < 0.1 µM |  | > 10 µM | > 10 µM |  | > 10 µM |  |  |  |  | > 10 µM | 5 to 10 µM |  |  | 
Fc1cncc(CNc2ccc(Cc3c[nH]c4ncc(Cl)cc34)c(F)n2)c1 [Compound P-2001, [5-(5-Chloro-1H-pyrrolo[2,3-b]pyridin-3-ylmethyl)-6-fluoro-pyridin-2-yl]-(5-fluoro-pyridin-3-ylmethyl)-amine] | > 0.1 µM | >20 | < 0.1 µM |  | > 10 µM | < 5 µM |  | > 10 µM | 5 to 10 µM |  |  |  |  | 5 to 10 µM |  |  | 
COc1ccc(CNc2ccc(Cc3c[nH]c4ncc(C)cc34)c(F)n2)cn1 [Compound P-2029, [6-Fluoro-5-(5-methyl-1H-pyrrolo[2,3-b]pyridin-3-ylmethyl)-pyridin-2-yl]-(6-methoxy-pyridin-3-ylmethyl)-amine] | > 0.1 µM | >20 | < 0.1 µM | < 0.1 µM | > 10 µM | < 5 µM | < 5 µM | > 10 µM | 5 to 10 µM |  |  |  |  |  |  |  | 
